From patent US4873233A, “17-Substituted androsta-1,4-dien-3-one derivatives” (Farmitalia Carlo Erba S.p.a., priority 1987, dated 1989) come the findings set out here.

For the experiment, the target named is T1, androgen receptor (Rattus norvegicus, UniProt P15207).
T1 sequence (P15207 1-902): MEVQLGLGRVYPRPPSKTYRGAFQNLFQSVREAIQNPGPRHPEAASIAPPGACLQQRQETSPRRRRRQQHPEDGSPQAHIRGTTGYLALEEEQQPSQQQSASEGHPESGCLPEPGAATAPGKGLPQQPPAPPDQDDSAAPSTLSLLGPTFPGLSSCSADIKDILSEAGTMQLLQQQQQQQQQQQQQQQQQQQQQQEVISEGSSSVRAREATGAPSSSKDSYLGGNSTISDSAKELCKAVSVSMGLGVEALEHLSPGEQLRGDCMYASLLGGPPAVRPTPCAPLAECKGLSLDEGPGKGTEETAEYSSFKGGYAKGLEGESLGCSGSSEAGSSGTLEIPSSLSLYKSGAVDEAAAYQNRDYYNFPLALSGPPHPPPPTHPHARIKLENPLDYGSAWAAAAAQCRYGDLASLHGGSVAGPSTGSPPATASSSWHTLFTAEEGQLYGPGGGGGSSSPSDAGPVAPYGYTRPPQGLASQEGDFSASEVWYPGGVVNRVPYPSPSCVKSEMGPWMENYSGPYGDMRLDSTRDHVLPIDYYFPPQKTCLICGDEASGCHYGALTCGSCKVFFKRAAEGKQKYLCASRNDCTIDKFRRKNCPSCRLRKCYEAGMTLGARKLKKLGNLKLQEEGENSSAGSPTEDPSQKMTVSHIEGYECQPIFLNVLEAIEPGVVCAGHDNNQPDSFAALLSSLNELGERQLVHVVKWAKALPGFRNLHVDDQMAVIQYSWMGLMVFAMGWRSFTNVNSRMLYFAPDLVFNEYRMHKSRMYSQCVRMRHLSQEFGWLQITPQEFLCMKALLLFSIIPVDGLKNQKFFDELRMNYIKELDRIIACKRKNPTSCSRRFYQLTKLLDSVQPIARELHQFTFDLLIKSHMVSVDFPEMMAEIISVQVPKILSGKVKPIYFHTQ
Briefly: Binding affinity to cytoplasmic androgen (rat prostate) receptors, dextran-coated charcoal adsorption technique.

Experimental: Binding affinity to cytoplasmic androgen (rat prostate) receptors was determined by standard dextran-coated charcoal adsorption technique (Raynaud J. P. et al. J. Steroid. Biochem. 6, 615-622, 1975).
Prostatic tissue, obtained from both adrenalectomized and orchidectomized Sprague-Dawley rats, was homogenized (1:10 weight:vol ratio) in 10 mM Tris-HCl PH 7.4, containing 1.5 nM EDTA and 1 mM dithiothreitol, in motor driven tissue grinders. The homogenate was centrifuged at 105,000×g for 1 h at 2° C. Aliquots of cytosol (0.2 ml) were incubated for 2 h at 0° C. with various concentrations of the test compounds, in duplicate, and a fixed amount of [^3 H]-5α-dihydrotestosterone (DHT, final concentration 1 nM in 0.4 ml of incubation volume). Then, free radioactivity was adsorbed on 0.2 ml of dextran-coated charcoal suspension and after centrifugation at 1,500×g for 10 min, the bound radioactivity in the supernatant was determined by liquid scintillation in RIaluma.

With `C=C1C[C@H]2[C@@H]3CC[C@H](O)[C@@]3(C)CC[C@@H]2[C@@]2(C)C=CC(=O)C=C12` [6-methylenandrosta-1,4-diene-17β-ol-3-one], the “affinity to the androgen receptor (in words)” value was “very high affinity”. Moreover, the “times more potent than the correspondent 17-cheto-derivative (androgen receptor affinity)” value (versus 6-methylenandrosta-1,4-diene-3,17-dione) turned out to be 76 times.
